ChEMBL document CHEMBL1201862, “PubChem BioAssay data set” (2004)
Each block holds one compound with its values, some of them ahead of it. Active and inactive are the calls of the source.

Tests used:
[1] = biological target: Induced myeloid leukemia cell differentiation protein Mcl-1 (Homo sapiens, UniProt Q07820); type: functional
[2] = viability loss in THP-1 monocytes – THP-1 cells, cytotoxicity control for Vif-APOBEC3G degradation inhibitor project, dose response (AID 1117359); type: functional; conditions: THP-1
[3] = biological target: Beta-arrestin-1 (Homo sapiens, UniProt P49407); test: beta-arrestin/AP2 interaction blockers, potency – biochemical, cherry pick 1, beta2-adaptin appendage, flow cytometry, dose response (AID 588783); type: functional
Chain of Beta-arrestin-1 (P49407 whole entry): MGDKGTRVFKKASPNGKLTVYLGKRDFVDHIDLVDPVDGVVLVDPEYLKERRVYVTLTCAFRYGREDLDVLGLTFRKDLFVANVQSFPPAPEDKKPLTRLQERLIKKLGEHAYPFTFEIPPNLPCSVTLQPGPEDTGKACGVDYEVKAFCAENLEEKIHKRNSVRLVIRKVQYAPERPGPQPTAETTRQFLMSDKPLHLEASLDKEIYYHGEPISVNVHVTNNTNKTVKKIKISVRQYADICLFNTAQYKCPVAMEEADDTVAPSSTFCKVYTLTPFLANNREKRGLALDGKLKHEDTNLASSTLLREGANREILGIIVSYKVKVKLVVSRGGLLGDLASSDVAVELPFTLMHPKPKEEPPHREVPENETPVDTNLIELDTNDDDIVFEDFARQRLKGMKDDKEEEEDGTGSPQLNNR

[4] = viability loss in HeLa cells – cytotoxicity control for MgcRacGAP inhibitor project, dose response (AID 624300); type: functional
[5] = biological target: Genome polyprotein (dengue virus type 2, UniProt P29990); test: flavivirus cap methylation enzyme inhibition – biochemical, confirmation dose response, primary screen (AID 588689); type: functional
Chain of Genome polyprotein (P29990 2492-3391 limits assumed): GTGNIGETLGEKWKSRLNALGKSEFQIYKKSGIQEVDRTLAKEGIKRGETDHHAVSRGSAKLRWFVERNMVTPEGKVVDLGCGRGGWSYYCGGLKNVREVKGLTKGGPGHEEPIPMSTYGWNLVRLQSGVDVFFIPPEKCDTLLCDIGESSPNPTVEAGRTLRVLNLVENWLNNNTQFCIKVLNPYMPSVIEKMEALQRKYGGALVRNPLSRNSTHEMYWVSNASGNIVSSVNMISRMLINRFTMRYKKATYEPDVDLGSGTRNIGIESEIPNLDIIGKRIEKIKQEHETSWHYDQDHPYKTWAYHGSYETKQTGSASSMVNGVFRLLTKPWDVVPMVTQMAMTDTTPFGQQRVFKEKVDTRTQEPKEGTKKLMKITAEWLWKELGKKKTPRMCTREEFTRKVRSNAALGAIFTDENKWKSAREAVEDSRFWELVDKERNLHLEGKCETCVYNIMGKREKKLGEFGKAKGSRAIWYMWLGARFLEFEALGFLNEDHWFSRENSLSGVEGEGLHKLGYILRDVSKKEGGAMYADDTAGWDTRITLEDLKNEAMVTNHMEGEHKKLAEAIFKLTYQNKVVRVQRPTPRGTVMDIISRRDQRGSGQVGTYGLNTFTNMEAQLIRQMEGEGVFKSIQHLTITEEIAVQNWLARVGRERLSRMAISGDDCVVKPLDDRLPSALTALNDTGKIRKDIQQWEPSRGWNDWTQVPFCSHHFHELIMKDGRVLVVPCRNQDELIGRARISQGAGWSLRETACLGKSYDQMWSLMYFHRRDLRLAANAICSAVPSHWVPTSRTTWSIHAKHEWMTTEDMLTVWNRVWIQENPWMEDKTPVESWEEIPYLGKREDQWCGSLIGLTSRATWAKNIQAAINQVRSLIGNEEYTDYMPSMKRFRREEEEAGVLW

[6] = test system: Vero; test: viability of Vero cells under compound – cytotoxicity control for flavivirus capping enzyme inhibitors (AID 588742); type: functional; conditions: Chlorocebus sabaeus
[7] = biological target: E3 ubiquitin-protein ligase Mdm2 (Homo sapiens, UniProt Q00987); test: MDM2-luc reporter signal enhancers, multi-concentration potency testing, MDM2 ubiquitin-protein ligase inhibitor program, whole-cell format, luminescence detection, 384-well microplate (AID 1394); type: functional;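 further: MDM2 E3 inhibitors raise luminescence so EC50 is for signal enhancement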
Chain of E3 ubiquitin-protein ligase Mdm2 (Q00987 whole entry): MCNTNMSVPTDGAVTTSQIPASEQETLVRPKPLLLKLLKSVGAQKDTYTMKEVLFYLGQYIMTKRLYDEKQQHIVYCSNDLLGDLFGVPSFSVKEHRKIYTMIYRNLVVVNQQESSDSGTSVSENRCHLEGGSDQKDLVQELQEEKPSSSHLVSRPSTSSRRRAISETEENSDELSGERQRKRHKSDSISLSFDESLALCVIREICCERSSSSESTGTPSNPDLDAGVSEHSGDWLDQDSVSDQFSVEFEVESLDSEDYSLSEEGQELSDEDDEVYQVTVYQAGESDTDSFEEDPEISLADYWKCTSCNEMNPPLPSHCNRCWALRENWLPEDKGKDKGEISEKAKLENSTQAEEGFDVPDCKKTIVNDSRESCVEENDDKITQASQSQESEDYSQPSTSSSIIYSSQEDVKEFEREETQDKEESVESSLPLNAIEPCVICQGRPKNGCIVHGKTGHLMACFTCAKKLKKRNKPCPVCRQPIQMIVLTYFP

[8] = biological target: 5-hydroxytryptamine receptor 5A (Homo sapiens, UniProt P47898); test: Counterscreen for agonists of OPRM1-OPRD1 heterodimerization: luminescence-based cell-based high throughput dose response assay to identify agonists of 5-hydroxytryptamine (serotonin) 5A receptor (HTR5A). [Related pubchem assays (depositor defined):AID504326, AID504355, AID504692, AID504904, AID504905]; type: functional
Chain of 5-hydroxytryptamine receptor 5A (P47898 whole entry): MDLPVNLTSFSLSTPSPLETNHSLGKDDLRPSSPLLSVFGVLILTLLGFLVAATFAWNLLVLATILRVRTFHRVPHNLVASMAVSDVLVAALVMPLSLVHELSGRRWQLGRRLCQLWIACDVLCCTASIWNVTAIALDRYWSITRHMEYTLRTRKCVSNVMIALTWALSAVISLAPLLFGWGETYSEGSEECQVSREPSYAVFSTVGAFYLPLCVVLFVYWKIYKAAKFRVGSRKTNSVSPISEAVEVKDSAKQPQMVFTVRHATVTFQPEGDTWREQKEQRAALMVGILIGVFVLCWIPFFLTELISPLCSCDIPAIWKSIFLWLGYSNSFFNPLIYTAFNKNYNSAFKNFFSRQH

[9] = biological target: Mu-type opioid receptor (Homo sapiens, UniProt P35372); test: (§1) Counterscreen for agonists of heterodimerization of the mu 1 (OPRM1) and delta 1 (OPRD1) opioid receptors: Luminescence-based cell-based high throughput dose response assay to identify agonists of OPRM1 homodimerization.; type: functional
Chain of Mu-type opioid receptor (P35372 whole entry): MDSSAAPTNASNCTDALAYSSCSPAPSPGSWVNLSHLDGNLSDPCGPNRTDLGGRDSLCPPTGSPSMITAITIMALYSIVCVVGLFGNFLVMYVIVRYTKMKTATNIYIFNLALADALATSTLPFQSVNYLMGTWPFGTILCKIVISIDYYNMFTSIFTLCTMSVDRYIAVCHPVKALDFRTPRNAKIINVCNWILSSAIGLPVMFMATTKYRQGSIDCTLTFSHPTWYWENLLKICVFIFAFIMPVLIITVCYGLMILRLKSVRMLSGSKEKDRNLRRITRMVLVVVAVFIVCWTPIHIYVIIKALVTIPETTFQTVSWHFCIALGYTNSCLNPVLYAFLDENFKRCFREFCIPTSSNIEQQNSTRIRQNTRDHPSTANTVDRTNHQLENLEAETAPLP

[10] = biological target: Delta-type opioid receptor (Homo sapiens, UniProt P41143); test: as §1, with “of OPRD1” for “of OPRM1”, “homodimerization. [Related pubchem assays (depositor defined):AID504326, AID504355, AID504692, AID504904, AID504905]” for “homodimerization.”; type: functional
Chain of Delta-type opioid receptor (P41143 whole entry): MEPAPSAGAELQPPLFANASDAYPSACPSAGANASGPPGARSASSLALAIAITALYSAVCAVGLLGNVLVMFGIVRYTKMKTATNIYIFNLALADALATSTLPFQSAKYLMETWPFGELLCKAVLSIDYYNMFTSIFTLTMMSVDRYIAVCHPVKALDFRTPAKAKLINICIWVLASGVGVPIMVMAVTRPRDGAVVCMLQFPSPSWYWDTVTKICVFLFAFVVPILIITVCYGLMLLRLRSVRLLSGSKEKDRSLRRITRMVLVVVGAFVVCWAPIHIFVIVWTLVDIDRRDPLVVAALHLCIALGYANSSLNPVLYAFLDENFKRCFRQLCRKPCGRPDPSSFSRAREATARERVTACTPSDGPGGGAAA

[11] = test system: HEK293; test: cells; type: functional, cell-based; conditions: Homo sapiens
[12] = biological target: Nuclear receptor subfamily 0 group B member 1 (Homo sapiens, UniProt P51843); test: Luminescence-based cell-based high throughput dose response assay for inhibitors of the orphan nuclear receptor subfamily 0, group B, member 1 (DAX1; NR0B1). [Related pubchem assays (depositor defined):AID504766, AID504790]; type: functional
Chain of Nuclear receptor subfamily 0 group B member 1 (P51843 whole entry): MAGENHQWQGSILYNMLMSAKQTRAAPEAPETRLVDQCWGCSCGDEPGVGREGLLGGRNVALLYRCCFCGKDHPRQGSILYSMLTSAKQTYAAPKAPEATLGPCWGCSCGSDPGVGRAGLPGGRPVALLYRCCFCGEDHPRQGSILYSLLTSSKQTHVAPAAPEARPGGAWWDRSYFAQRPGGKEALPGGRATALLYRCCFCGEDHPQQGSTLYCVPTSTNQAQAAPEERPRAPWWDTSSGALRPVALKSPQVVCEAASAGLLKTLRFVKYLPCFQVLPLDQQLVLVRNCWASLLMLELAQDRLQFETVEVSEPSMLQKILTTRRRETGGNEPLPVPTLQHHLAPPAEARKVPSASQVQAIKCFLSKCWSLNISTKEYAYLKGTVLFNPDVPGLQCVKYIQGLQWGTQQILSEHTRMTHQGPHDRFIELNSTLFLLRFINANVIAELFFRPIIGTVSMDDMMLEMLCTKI

[13] = A549 cell cytotoxicity, dose response, cytotoxicity control, plate reader, cherry-pick, antagonist series (AID 743412); type: functional, cell-based
[14] = biological target: T1, Microphthalmia-associated transcription factor (Homo sapiens, UniProt O75030); test: reducers of TRPM1 reporter luminescence, concentration series – cell-based, SK-MEL-5, cherry-picked, set 3, MITF inhibitor project, dose response (AID 493073); type: functional;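 further: SK-MEL-5 melanoma cells with luciferase driven by the MITF target TRPM1 promoter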
T1 sequence (O75030 whole entry): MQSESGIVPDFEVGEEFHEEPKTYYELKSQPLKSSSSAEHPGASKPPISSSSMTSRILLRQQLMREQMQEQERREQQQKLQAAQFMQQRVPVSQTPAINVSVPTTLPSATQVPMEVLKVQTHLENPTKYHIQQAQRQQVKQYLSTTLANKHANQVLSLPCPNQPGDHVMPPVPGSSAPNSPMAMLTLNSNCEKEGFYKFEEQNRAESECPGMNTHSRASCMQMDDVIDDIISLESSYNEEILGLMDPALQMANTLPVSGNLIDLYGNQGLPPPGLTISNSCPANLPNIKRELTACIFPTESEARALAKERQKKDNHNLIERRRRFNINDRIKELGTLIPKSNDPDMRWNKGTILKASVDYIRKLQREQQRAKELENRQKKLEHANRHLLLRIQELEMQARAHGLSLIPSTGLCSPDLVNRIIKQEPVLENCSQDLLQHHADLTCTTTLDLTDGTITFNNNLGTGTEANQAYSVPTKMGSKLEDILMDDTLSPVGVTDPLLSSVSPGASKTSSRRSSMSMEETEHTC

[15] = toxicity toward HepG2 liver cells – cell-based, plate reader, cherry-pick, antagonist series, cytotoxicity control, dose response (AID 743416); type: functional
[16] = reduction of Shn3 3'UTR-driven luciferase in osteoblasts – cell-based, Clone20 osteoblasts, firefly luciferase, cherry-picked, dose response (AID 624132); type: functional;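 further: firefly luciferase luminescence from reporter carrying the Shn3 3'UTR in osteoblasts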
[17] = loss of viability in HepG2 cells – cell-based, CellTiter-Glo, cherry-picked, cytotoxicity control for Shn3 inhibitor project, dose response (AID 624134); type: functional
[18] = biological target: Paired box protein Pax-8 (Homo sapiens, UniProt Q06710); test: PAX8 transcriptional activity inhibition in RMG-I – RMG-I cells, luciferase, cherry-pick, dose response (AID 687027); type: functional, cell-based;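 further: luciferase reporter driven by Pax8 target thyroperoxidase promoter measured by SteadyGlo luminescence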
Chain of Paired box protein Pax-8 (Q06710 whole entry, the tested form may be a part): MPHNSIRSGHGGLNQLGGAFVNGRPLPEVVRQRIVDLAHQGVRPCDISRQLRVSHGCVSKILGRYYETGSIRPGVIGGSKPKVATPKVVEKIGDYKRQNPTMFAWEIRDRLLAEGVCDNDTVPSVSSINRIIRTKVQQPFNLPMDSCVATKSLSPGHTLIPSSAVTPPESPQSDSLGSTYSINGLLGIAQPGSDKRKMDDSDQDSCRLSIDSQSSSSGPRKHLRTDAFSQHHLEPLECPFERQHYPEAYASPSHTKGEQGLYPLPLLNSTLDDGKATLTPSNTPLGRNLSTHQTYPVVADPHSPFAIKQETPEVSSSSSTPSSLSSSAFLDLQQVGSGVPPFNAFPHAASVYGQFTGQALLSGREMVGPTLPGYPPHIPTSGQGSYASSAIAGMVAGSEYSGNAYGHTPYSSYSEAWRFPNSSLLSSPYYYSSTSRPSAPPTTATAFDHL

[19] = off-target signal loss in HeLa-CEM21 co-culture – HeLa F-luc CTL cells, cherry-picked, counter-screen for HIV-1 Env fusion inhibitor project, dose response (AID 652040); type: functional, cell-based;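 further: potency for signal decrease marking cytotoxic or nonspecific inhibition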
[20] = biological target: T2, Heat shock factor protein 1 (Mus musculus, UniProt P38532); test: decrease of HSF1-responsive luciferase luminescence – cell-based, NIH3T3, dose retest, confirmation (AID 2382); type: functional;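 further: NIH3T3 fibroblasts with HSF1-driven luciferase reporter stressed by proteasome inhibitor MG132; luminescence from HSF1-driven luciferase expression after 8 hours of MG132 stress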
T2 sequence (P38532 whole entry): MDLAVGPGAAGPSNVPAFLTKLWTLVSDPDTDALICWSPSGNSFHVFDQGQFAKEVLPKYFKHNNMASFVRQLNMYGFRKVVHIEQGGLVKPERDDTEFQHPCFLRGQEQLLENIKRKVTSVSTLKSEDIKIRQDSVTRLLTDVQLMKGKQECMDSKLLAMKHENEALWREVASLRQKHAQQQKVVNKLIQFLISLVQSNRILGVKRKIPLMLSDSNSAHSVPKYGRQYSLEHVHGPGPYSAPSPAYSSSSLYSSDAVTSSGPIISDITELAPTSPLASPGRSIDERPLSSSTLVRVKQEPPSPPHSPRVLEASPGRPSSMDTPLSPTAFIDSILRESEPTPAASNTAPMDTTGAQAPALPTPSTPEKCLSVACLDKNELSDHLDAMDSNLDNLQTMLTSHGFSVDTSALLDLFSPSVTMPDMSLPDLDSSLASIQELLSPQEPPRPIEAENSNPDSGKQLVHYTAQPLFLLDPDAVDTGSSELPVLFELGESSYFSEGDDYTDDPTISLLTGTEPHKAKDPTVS

[21] = blockers of HIV-1 envelope-mediated cell-cell fusion – cherry-pick, dose response (AID 652057); type: functional, cell-based
[22] = viability loss in HEK293 cells – cell-based, plate reader, cherry-picked samples, cytotoxicity control, dose response (AID 743446); type: functional
[23] = blockade of melanocortin 4 receptor signaling – cell-based, plate reader, cherry pick, counter-screen for LGR2 antagonist project, dose response (AID 743444); type: functional;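 further: transfected HEK 293 cells stimulated with alpha-MSH peptide; potency of inhibitors of the alpha-MSH evoked signal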
[24] = HEK-293T viability loss after treatment – luminescence, T-cell screen hits, cytotoxicity control for TCR NF-kB inhibitor project, dose response (AID 489026); type: functional, cell-based;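 further: cells exposed to compound about 14 hours before the viability readout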
[25] = biological target: Luciferin 4-monooxygenase (Photinus pyralis, UniProt P08659); test: inhibition of purified Photinus pyralis luciferase – biochemical, luminescence, dose response (AID 1891)
Chain of Luciferin 4-monooxygenase (P08659 whole entry, the tested form may be a part): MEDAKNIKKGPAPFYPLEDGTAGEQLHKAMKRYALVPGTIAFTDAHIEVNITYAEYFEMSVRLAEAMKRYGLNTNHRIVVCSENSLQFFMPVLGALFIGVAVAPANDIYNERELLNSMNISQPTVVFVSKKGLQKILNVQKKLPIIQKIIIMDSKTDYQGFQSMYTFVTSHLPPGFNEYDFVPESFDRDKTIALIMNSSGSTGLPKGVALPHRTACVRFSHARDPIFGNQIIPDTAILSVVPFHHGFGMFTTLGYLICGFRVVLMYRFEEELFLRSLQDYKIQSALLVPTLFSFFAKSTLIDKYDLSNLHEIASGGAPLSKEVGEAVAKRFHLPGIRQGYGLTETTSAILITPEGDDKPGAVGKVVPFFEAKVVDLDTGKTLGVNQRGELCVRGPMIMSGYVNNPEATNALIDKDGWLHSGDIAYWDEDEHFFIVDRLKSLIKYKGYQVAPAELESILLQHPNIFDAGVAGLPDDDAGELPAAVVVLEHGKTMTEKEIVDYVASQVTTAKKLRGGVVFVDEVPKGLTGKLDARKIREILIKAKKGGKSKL

[26] = blockers of HIV-1 ZM109 envelope-driven cell-cell fusion – HeLa effector, CEM target cells, luciferase, cherry-pick, dose response (AID 652058); type: functional, cell-based;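 further: luciferase signal from HIV-1 Env mediated cell-cell fusion of effector and target cells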
[27] = general cell-killing toxicity readout – plate reader, dry powder samples, cytotoxicity control for PAX8 inhibitor project, dose response (AID 743021); type: functional, cell-based
[28] = viability loss in CEM21 cells – cell-based, CellTiter-Glo luminescence, cherry-picked, cytotoxicity control for viral fusion inhibitor project, dose response (AID 652042); type: functional;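 further: potency for signal decrease meaning cytotoxicity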
[29] = Luminescence Cell-Based Dose Confirmation HTS to Identify Inhibitors of Platelet Dense Granule Release. [Related pubchem assays: 1663 (Primary HTS), 1678 (Summary of Project)]; type: functional
[30] = HIV-1 AD8 envelope cell-cell fusion blockers – cherry-pick, dose response (AID 652062); type: functional, cell-based;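 further: luciferase signal from cell-cell fusion driven by HIV-1 clade B AD8 Env; potency is for inhibitors of fusion seen as a drop in luminescence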
[31] = test system: A-375; test: MITF: Counter assay: A375 proliferation Measured in Cell-Based System Using Plate Reader - 2084-03_Inhibitor_Dose_DryPowder_Activity. [Related pubchem assays (depositor defined):AID488944]; type: functional; conditions: Homo sapiens
[32] = blockers of bursicon-stimulated LGR2 cAMP reporter – cell-based, HEK293, CRE-luciferase reporter, cherry pick, set 2, dose response (AID 743343); type: functional;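 further: transfected cells were stimulated with diluted bursicon conditioned medium after compound addition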

Chain of Induced myeloid leukemia cell differentiation protein Mcl-1 (Q07820 whole entry): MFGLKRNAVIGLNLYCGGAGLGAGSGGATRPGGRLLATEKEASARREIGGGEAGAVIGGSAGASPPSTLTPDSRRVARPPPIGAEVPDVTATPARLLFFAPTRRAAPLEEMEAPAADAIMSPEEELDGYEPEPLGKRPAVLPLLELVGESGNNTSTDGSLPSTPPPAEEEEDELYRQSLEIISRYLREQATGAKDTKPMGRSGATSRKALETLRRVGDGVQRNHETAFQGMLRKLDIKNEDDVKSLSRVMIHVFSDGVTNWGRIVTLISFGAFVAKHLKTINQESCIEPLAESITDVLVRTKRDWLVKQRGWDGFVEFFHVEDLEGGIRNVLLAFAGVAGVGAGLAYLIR

Compound: Cc1cccc2c1c1ccc3c(c1n2C)C(=O)C=CC3=O
IC50 [1]: 3.22 µM (active)
CC50 [2]: 14.1 µM (active)
IC50 [3]: 7.34 µM (active)
CC50 [4]: 100 µM (active)
IC50 [5]: 33.5 µM (active)
CC50 [6]: 34.7 µM (active)
EC50 [7]: 1.03 µM (active)

EC50 [8]: > 92.5 µM (inactive)
EC50 [9]: > 92.5 µM (inactive)
EC50 [10]: > 92.5 µM (inactive)
Compound: Cc1c(CCOC(=O)c2ccccc2)sc[n+]1CC(=O)c1ccc(Br)cc1

Compound: COc1ccccc1NC(=O)Nc1ccc2c(c1)OCCO2
IC50 [11]: > 67.5 µM (inactive)
IC50 [12]: > 67.5 µM (inactive)

Compound: C=CCn1c(C)cc(C2=NN=C(NCC)SC2)c1C
AC50 [13]: 11.7 µM (active)
AC50 [14]: 0.056 µM (active)
AC50 [15]: 3.64 µM (active)
AC50 [16]: < 0.26 µM (active)
AC50 [17]: 26 µM (active)
AC50 [18]: 0.267 µM (active)
AC50 [19]: 0.554 µM (active)
EC50 [20]: < 0.16 µM (active)
AC50 [21]: 0.295 µM (active)
AC50 [22]: 14.5 µM (active)
AC50 [23]: < 0.068 µM (active)
IC50 [24]: > 80 µM (inactive)
EC50 [25]: 5.03 µM (active)
AC50 [26]: 2.94 µM (active)
AC50 [27]: 8.07 µM (active)
AC50 [28]: 34.7 µM (active)
EC50 [29]: 2.02 µM (active)
AC50 [30]: 0.359 µM (active)
AC50 [31]: 25.7 µM (active)
AC50 [32]: < 0.068 µM (active)
